Data taken from article PMC5050145 (European journal of nuclear medicine and molecular imaging, 2016).
Values joined by “and” are separate entries in the source; they are usually repeats but may differ in a detail not shown here. Identical values can stand only once.

What was measured:
[1] = Stability of the final product in formulation; format: physicochemical; conditions: 3 h; buffered solution at pH 6.8
[2] = In-vitro stability in mouse blood plasma; format: in vitro ADME; conditions: 2 h, 37 °C
[3] = In-vitro stability in human blood plasma; format: in vitro ADME; conditions: 2 h, 37 °C
[4] = Biodistribution by microPET/CT imaging in C57BL6 mice; format: in vivo; conditions: 1 h post-injection, microPET
[5] = Dosimetry: mouse microPET biodistribution extrapolated to humans; format: in vivo, C57BL6 mice; conditions: for effective dose: administered activity of 200 MBq
[6] = target: PSMA; conditions: read-out: Ki value towards PSMA; complexed to natGa; cell-based assay; cited from earlier work
[7] = system: LNCaP cells; conditions: complexed to natGa; cited from earlier work

Row | Compound | radiochemical purity in stability test [1] | intact compound [2] | intact compound [3] | tissue uptake, bladder [4] | tissue uptake, kidneys [4] | Mean RT (time-integrated activity coefficient) scaled to humans ([5]; Bone, Method 1) | Mean RT (time-integrated activity coefficient) scaled to humans ([5]; Bone, Method 2) | mean extrapolated effective dose per unit activity ([5]; Method 1) | effective dose ([5]; Method 1) | effective dose ([5]; Method 2) | maximum administered human activity limit ([5]; Method 2, kidneys dose-limiting, 21CFR361.1) | Mean RT (time-integrated activity coefficient) scaled to humans ([5]; Muscle, Method 2) | Mean RT (time-integrated activity coefficient) scaled to humans ([5]; Tot. Kidney, Method 1) | Mean RT (time-integrated activity coefficient) scaled to humans ([5]; Tot. Kidney, Method 2) | feasible injected activities ([5]; most stringent dosimetric calculations) | mean extrapolated effective dose per unit activity ([5]; second value, printed Method 1) | Ki [6] | uptake in PSMA-positive LNCaP cells [7]
1 | O=C([O-])CN(CCN(CC(=O)[O-])Cc1cc(CCC(=O)NCCCCCC(=O)NCCCC[C@H](NC(=O)N[C@@H](CCC(=O)O)C(=O)O)C(=O)O)ccc1O)Cc1cc(CCC(=O)O)ccc1O.[18F-].[Al+3] [18F-PSMA-11] | > 97% | 91% | 94% | 77.4 ± 39.1 %ID/g | 119.3 ± 16.5 %ID/g | 0.045 ± 0.013 h | 0.114 ± 0.028 h | 8.59 × 10^−3 ± 7.46 × 10^−4 mSv/MBq | 1.72 mSv and 1.7 mSv | 1.25 mSv | 1,742 MBq | 0.077 ± 0.018 h | 0.141 ± 0.033 h | 0.042 ± 0.009 h | up to 0.56 GBq | 6.23 × 10^−3 ± 5.74 × 10^−4 mSv/MBq | – | –
2 | O=C(O)CCc1ccc(O)c(CN(CCN(CC(=O)O)Cc2cc(CCC(=O)NCCCCCC(=O)NCCCC[C@H](NC(=O)N[C@@H](CCC(=O)O)C(=O)O)C(=O)O)ccc2O)CC(=O)O)c1 [PSMA-11, Glu-urea-Lys (Ahx)-HBED-CC] | – | – | – | – | – | – | – | – | – | – | – | – | – | – | – | – | 12 ± 2.8 nM | readily taken up
